Results from patent publication US20240140979A1, “HETEROCYCLIC INHIBITORS OF CD73 FOR TREATMENT OF DISEASE” (Teon Therapeutics, Inc., priority 2022, published 2024).

The molecules below were run against human CD73 enzyme (Homo sapiens (Human), UniProt P21589) (assay: Biochemical CD73 Assay). Conditions: recombinant human CD73 2 nM, AMP 40 μM, Malachite Green free phosphate detection.
Protocol: Activity of recombinant CD73 was measured by quantification of free phosphate using the Malachite Green detection system (R&D Systems #DY996). Test compounds were solubilized in DMSO and dispensed into 384-well polystyrene plates in a 8-point 3× titration in duplicates. Then, 10 μL of 4 nM human CD73 enzyme (Novoprotein #C446) in phosphate- free assay buffer (10 mM HEPES, pH 7.4, 125 mM NaCl, 1 mM KCl, 10 mM glucose, 2 mM MgCl2) was added to the plates. The compound and enzyme were incubated for 15 min at RT. Then, 10 μL of 80 μM AMP (Sigma Aldrich #A1752) in the assay buffer was added and the reaction mixture was incubated for […] at 37° C. The final concentrations of CD73 and AMP in the reaction were 2 nM and 40 μM, respectively. The reaction was stopped by adding 5 μL of Malachite Green reagent A and incubating for 10 mM at RT, followed by addition of 5 μL of Malachite Green reagent B and incubation for 20 mM at RT. Absorbance was then read at 620 nm with the Flexstation spectrophotometer (Molecular Devices). The IC50 values were determined using a four-parameter nonlinear regression curve fit.

human CD73 enzyme, sequence (P21589 27-574): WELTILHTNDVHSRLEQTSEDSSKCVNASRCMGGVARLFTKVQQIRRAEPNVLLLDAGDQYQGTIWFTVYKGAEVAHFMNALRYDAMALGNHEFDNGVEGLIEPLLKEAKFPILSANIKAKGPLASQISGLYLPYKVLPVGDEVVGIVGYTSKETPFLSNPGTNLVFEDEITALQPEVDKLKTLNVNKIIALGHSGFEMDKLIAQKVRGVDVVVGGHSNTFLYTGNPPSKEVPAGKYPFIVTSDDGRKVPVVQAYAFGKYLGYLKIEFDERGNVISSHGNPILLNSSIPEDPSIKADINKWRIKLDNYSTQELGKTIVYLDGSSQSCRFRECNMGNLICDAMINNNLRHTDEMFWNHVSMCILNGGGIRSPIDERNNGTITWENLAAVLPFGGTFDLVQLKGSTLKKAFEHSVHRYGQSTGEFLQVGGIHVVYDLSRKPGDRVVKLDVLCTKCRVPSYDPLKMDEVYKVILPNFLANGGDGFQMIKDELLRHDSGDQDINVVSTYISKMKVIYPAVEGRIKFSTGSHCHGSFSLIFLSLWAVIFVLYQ

Structure (SMILES)	IC50
COC[C@](OC[C@H]1O[C@@H](n2ncc3c(NC4CCCC4)nc(Cl)nc32)[C@H](O)[C@@H]1O)(C(=O)NS(=O)(=O)N(C)C)P(=O)(O)O [Example 2, ((R)-2-(((2R,3S,4R,5R)-5-(6-chloro-4-(cyclopentylamino)-1H-pyrazolo[3,4-d]pyrimidin-1-yl)-3,4-dihydroxytetrahydrofuran-2-yl)methoxy)-1-((N,N-dimethylsulfamoyl)amino)-3-methoxy-1-oxourouan-2-yl)phosphonic Acid]	114 nM
COC[C@@](OC[C@H]1O[C@@H](n2ncc3c(NC4CCCC4)nc(Cl)nc32)[C@H](O)[C@@H]1O)(C(=O)NS(=O)(=O)N1CCC1)P(=O)(O)O [Example 5, ((S)-1-(Azetidine-1-sulfonamido)-2-(((2R,3S,4R,5R)-5-(6-chloro-4-(cyclopentylamino)-1H-pyrazolo[3,4-d]pyrimidin-1-yl)-3,4-dihydroxytetrahydrofuran-2-yl)methoxy)-3-methoxy-1-oxopropan-2-yl)phosphonic Acid]	2.3 nM
COC[C@@](OC[C@H]1O[C@@H](n2ncc3c(NC4CCCC4)nc(Cl)nc32)[C@H](O)[C@@H]1O)(C(=O)NS(=O)(=O)N(C)C)P(=O)(O)O [Example 1, ((S)-2-(((2R,3S,4R,5R)-5-(6-Chloro-4-(cyclopentylamino)-1H-pyrazolo[3,4-d]pyrimidin-1-yl)-3,4-dihydroxytetrahydrofuran-2-yl)methoxy)-1-((N,N-dimethylsulfamoyl)amino)-3-methoxy-1-oxopropan-2-yl)phosphonic Acid]	6.4 nM
COC[C@@](OC[C@H]1O[C@@H](n2ncc3c(NC4CCCC4)nc(Cl)nc32)[C@H](O)[C@@H]1O)(C(=O)NS(=O)(=O)N1CCCC1)P(=O)(O)O [Example 4]	6 nM
COC[C@@](OC[C@H]1O[C@@H](n2ncc3c(NC4CCCC4)nc(Cl)nc32)[C@H](O)[C@@H]1O)(C(=O)NS(=O)(=O)N1CCCC1=O)P(=O)(O)O [Example 3]	0.48 nM

Next, values leading:

IC50	Structure (SMILES)
6.2 nM	COC[C@@](OC[C@H]1O[C@@H](n2ncc3c(NC4CCCC4)nc(Cl)nc32)[C@H](O)[C@@H]1O)(C(=O)NS(=O)(=O)N1CC[C@@H](O)C1)P(=O)(O)O [Example 7]
805 nM	COC[C@](OC[C@H]1O[C@@H](n2ncc3c(NC4CCCC4)nc(Cl)nc32)[C@H](O)[C@@H]1O)(C(=O)NS(=O)(=O)N1CCC1)P(=O)(O)O [Example 6, ((R)-1-(Azetidine-1-sulfonamido)-2-(((2R,3S,4R,5R)-5-(6-chloro-4-(cyclopentylamino)-1H-pyrazolo[3,4-d]pyrimidin-1-yl)-3,4-dihydroxytetrahydrofuran-2-yl)methoxy)-3-methoxy-1-oxopropan-2-yl)phosphonic Acid]
3 nM	COC[C@@](OC[C@H]1O[C@@H](n2ncc3c(NC4CCCC4)nc(Cl)nc32)[C@H](O)[C@@H]1O)(C(=O)NS(=O)(=O)N1CC[C@H](O)C1)P(=O)(O)O [Example 9, ((S)-2-(((2R,3S,4R,5R)-5-(6-Chloro-4-(cyclopentylamino)-1H-pyrazolo[3,4-d]pyrimidin-1-yl)-3,4-dihydroxytetrahydrofuran-2-yl)methoxy)-1-(((S)-3-hydroxypyrrolidine)-1-sulfonamido)-3-methoxy-1-oxopropan-2-yl)phosphonic Acid]
